The values below come from PubChem BioAssay AID330 (DTP/NCI, 2004).

The test system of this experiment is P388 leukemia ip, CD2F1 mice, survival T/C. Briefly: NCI In Vivo Anticancer Drug Screen. Data for tumor model P388 Leukemia (intraperitoneal) in CD2F1 (CDF1) mice. As to conditions: endpoint: median survival time, higher = longer survival. In short, it runs like this: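 Mice carrying the transplanted tumor received test compound or vehicle. Survival was recorded in each group, and the value is the treated-group measurement divided by that of the vehicle-treated control group.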

Where [1] appears, read: dose: 50.0 mg/kg/injection, schedule: Q01DX005 (ip), vehicle: saline with Tween-80.
Setting [2] is: dose: 50.0 mg/kg/injection, schedule: Q01DX009 (ip), vehicle: saline with Tween-80.
Where [3] appears, read: dose: 100.0 mg/kg/injection, schedule: Q01DX009 (ip), vehicle: saline with Tween-80.
Setting [4] is: dose: 200.0 mg/kg/injection, schedule: Q01DX009 (ip), vehicle: saline with Tween-80.
Where [5] appears, read: dose: 100.0 mg/kg/injection, schedule: Q01DX005 (ip), vehicle: saline with Tween-80.
Setting [6] is: dose: 200.0 mg/kg/injection, schedule: Q01DX005 (ip), vehicle: saline with Tween-80.
Where [7] appears, read: dose: 50.0 mg/kg/injection, schedule: Q01DX009 (ip), vehicle: Klucel (hydroxypropylcellulose) (HPC).
Where [8] appears, read: dose: 100.0 mg/kg/injection, schedule: Q01DX009 (ip), vehicle: Klucel (hydroxypropylcellulose) (HPC).
Setting [9] is: dose: 200.0 mg/kg/injection, schedule: Q01DX009 (ip), vehicle: Klucel (hydroxypropylcellulose) (HPC).
Where [10] appears, read: dose: 12.5 mg/kg/injection, schedule: Q01DX009 (ip), vehicle: saline.
[11] abbreviates: dose: 25.0 mg/kg/injection, schedule: Q01DX009 (ip), vehicle: saline.
Where [12] appears, read: dose: 50.0 mg/kg/injection, schedule: Q01DX009 (ip), vehicle: saline.
Where [13] appears, read: dose: 100.0 mg/kg/injection, schedule: Q01DX009 (ip), vehicle: saline.
The mark [14] stands for this setting: dose: 200.0 mg/kg/injection, schedule: Q01DX009 (ip), vehicle: saline.
The mark [15] stands for this setting: dose: 100.0 mg/kg/injection, schedule: Q04DX003 (ip), vehicle: saline.
Setting [16] is: dose: 200.0 mg/kg/injection, schedule: Q04DX003 (ip), vehicle: saline.
[17] abbreviates: dose: 400.0 mg/kg/injection, schedule: Q04DX003 (ip), vehicle: saline.

Several values for one entry are separate records, joined by “and”; a condition that tells them apart may be missing. Equal values may be shown once. Toxic doses and inconclusive results are not listed.

In the case of `CC(O)c1cc2c(o1)C(=O)c1cccc(O)c1C2=O` (configuration not stated), the T/C runs as follows: (dose: 9.38 mg/kg/injection, schedule: Q01DX005 (ip), vehicle: Klucel (hydroxypropylcellulose) (HPC)) 95 % of control; (dose: 18.75 mg/kg/injection, schedule: Q01DX005 (ip), vehicle: Klucel (hydroxypropylcellulose) (HPC)) 95 % of control; (dose: 37.5 mg/kg/injection, schedule: Q01DX005 (ip), vehicle: Klucel (hydroxypropylcellulose) (HPC)) 95 % of control.
Take `NC1CC2c3ccccc3C1c1ccccc12` (configuration not stated): the T/C by setting is: (dose: 12.5 mg/kg/injection, schedule: Q01DX005 (ip), vehicle: saline with Tween-80) 100 % of control; (dose: 25.0 mg/kg/injection, schedule: Q01DX005 (ip), vehicle: saline with Tween-80) 100 % of control; under setting [1], 100 % of control.
Take `C[CH2][Sn]1([CH2]C)[O]C2C(O)OC(CO)C(O)C2[O]1` (configuration not stated): the T/C reads like this: (dose: 1.56 mg/kg/injection, schedule: Q04DX003 (ip), vehicle: saline) 107 % of control and 120 % of control; (dose: 3.12 mg/kg/injection, schedule: Q04DX003 (ip), vehicle: saline) 107 % of control and 120 % of control; (dose: 6.25 mg/kg/injection, schedule: Q04DX003 (ip), vehicle: saline) 114 % of control; (dose: 12.5 mg/kg/injection, schedule: Q04DX003 (ip), vehicle: saline) 116 % of control.
As for `O=C1CC(N2CCCC2)=Nc2ccccc2N1`, the T/C reads like this: (dose: 50.0 mg/kg/injection, schedule: Q01DX005 (ip), vehicle: Klucel (hydroxypropylcellulose) (HPC)) 113 % of control; (dose: 100.0 mg/kg/injection, schedule: Q01DX005 (ip), vehicle: Klucel (hydroxypropylcellulose) (HPC)) 104 % of control; (dose: 200.0 mg/kg/injection, schedule: Q01DX005 (ip), vehicle: Klucel (hydroxypropylcellulose) (HPC)) 103 % of control.
For the compound `CC(C)C1CS1=O` (configuration not stated), the T/C reads like this: (dose: 60.0 mg/kg/injection, schedule: Q01DX005 (ip), vehicle: saline) 97 % of control; (dose: 120.0 mg/kg/injection, schedule: Q01DX005 (ip), vehicle: saline) 97 % of control; (dose: 240.0 mg/kg/injection, schedule: Q01DX005 (ip), vehicle: saline) 109 % of control.
`CC(C)(C)c1cc(/C=N/NC(=O)CC2CCCCC2)cc(C(C)(C)C)c1O`: the T/C (dose: 60.0 mg/kg/injection, schedule: Q01DX005 (ip), vehicle: saline with Tween-80) is 96 % of control; the T/C (dose: 120.0 mg/kg/injection, schedule: Q01DX005 (ip), vehicle: saline with Tween-80) was 100 % of control; the T/C (dose: 240.0 mg/kg/injection, schedule: Q01DX005 (ip), vehicle: saline with Tween-80) was 87 % of control.
As to `N#CC(Cc1ccccc1)c1ccccc1` (configuration not stated), the T/C runs as follows: (dose: 25.0 mg/kg/injection, schedule: Q01DX009 (ip), vehicle: distilled water + Tween-80) 95 % of control; (dose: 50.0 mg/kg/injection, schedule: Q01DX009 (ip), vehicle: distilled water + Tween-80) 110 % of control; (dose: 100.0 mg/kg/injection, schedule: Q01DX009 (ip), vehicle: distilled water + Tween-80) 93 % of control.
On to `CCCCCCC(=O)/C=C/c1ccc(OC(=O)c2ccc(C#N)cc2)cc1`, for which the T/C under setting [2] is 100 % of control, the T/C under setting [3] was 101 % of control and the T/C under setting [4] was 95 % of control.
As for `Cc1c[n+]([O-])n(-c2ccccc2)n1`, the T/C is, setting by setting: under setting [1], 101 % of control; under setting [5], 97 % of control; under setting [6], 103 % of control.
In the case of `Oc1ccc(C(c2ccc(O)cc2)C(Cl)(Cl)Cl)cc1`, the T/C is, setting by setting: (dose: 50.0 mg/kg/injection, schedule: Q04DX003 (ip), vehicle: saline + Tween-80 + alcohol) 104 % of control; (dose: 100.0 mg/kg/injection, schedule: Q04DX003 (ip), vehicle: saline + Tween-80 + alcohol) 101 % of control; (dose: 200.0 mg/kg/injection, schedule: Q04DX003 (ip), vehicle: saline + Tween-80 + alcohol) 103 % of control; (dose: 400.0 mg/kg/injection, schedule: Q04DX003 (ip), vehicle: saline + Tween-80 + alcohol) 111 % of control.
Take `O=S(=O)(c1ccc(NC(=S)NCc2ccncc2)cc1)N1CCCCC1`: the T/C by setting is: under setting [7], 97 % of control; under setting [8], 95 % of control; under setting [9], 98 % of control.
Take `CN(C)CCNc1ccccc1[N+](=O)[O-]`: the T/C is 100 % of control (dose: 12.5 mg/kg/injection, schedule: Q01DX001 (ip), vehicle: saline); 100 % of control (dose: 25.0 mg/kg/injection, schedule: Q01DX001 (ip), vehicle: saline); 100 % of control (dose: 50.0 mg/kg/injection, schedule: Q01DX001 (ip), vehicle: saline).
As to `CC1Cc2ccc(OCCN(C)C)cc2C1=O` (configuration not stated), the T/C under setting [1] was 98 % of control and the T/C under setting [5] is 99 % of control.
With `O=C(Nc1ncc([N+](=O)[O-])s1)c1ccc([N+](=O)[O-])cc1`, the T/C is 100 % of control under setting [10], 97 % of control under setting [11] and 104 % of control under setting [12].
As to `CCOC(=O)Cc1ccc(-c2csc(Nc3ccc(F)cc3)n2)cc1`, the T/C was 103 % of control under setting [7], 100 % of control under setting [8] and 105 % of control under setting [9].
Consider `CCC(=O)NC(Cc1cccs1)C(=O)O` (configuration not stated), for which the T/C (dose: 6.25 mg/kg/injection, schedule: Q01DX009 (ip), vehicle: saline) was 107 % of control; the T/C under setting [10] was 105 % of control; the T/C under setting [11] is 93 % of control; the T/C under setting [13] was 88 % of control; the T/C under setting [14] was 91 % of control.
`COC(=O)C(Nc1ccc(OC)cc1)c1ccccc1` (configuration not stated): the T/C reads like this: (dose: 60.0 mg/kg/injection, schedule: Q01DX005 (ip), vehicle: Klucel (hydroxypropylcellulose) (HPC)) 108 % of control; (dose: 120.0 mg/kg/injection, schedule: Q01DX005 (ip), vehicle: Klucel (hydroxypropylcellulose) (HPC)) 104 % of control; (dose: 240.0 mg/kg/injection, schedule: Q01DX005 (ip), vehicle: Klucel (hydroxypropylcellulose) (HPC)) 110 % of control.
As to `OCC1OC(O)C(N=C/C=C/c2ccccc2)C(O)C1O` (configuration not stated), the T/C under setting [1] was 104 % of control, the T/C under setting [5] was 117 % of control and the T/C under setting [6] is 115 % of control.
For the compound `C(=C/c1cc2cc(C3=NCCN3)ccc2o1)/C=C/c1cc2cc(C3=NCCN3)ccc2o1`, the T/C runs as follows: under setting [15], 106 % of control; under setting [16], 104 % of control; under setting [17], 110 % of control.
As to `C1=Nc2ccccc2OCCOc2ccccc2N=Cc2ccccc2NCCNc2ccccc21`, the T/C was 97 % of control under setting [15] and 100 % of control under setting [16].
For the compound `S=C1N=C2c3ccccc3C2C(=S)S1` (configuration not stated), the T/C runs as follows: (dose: 25.0 mg/kg/injection, schedule: Q01DX009 (ip), vehicle: saline with Tween-80) 93 % of control; under setting [2], 101 % of control and 105 % of control; under setting [3], 102 % of control and 120 % of control and 91 % of control; under setting [4], 100 % of control and 104 % of control and 87 % of control.
Turning to `CCCCN(C(C)=O)c1nc2ccccc2n1C`, the T/C by setting is: under setting [15], 97 % of control; under setting [16], 98 % of control; under setting [17], 95 % of control.
As for `COc1ccc(/C(C#N)=C/c2cccs2)cc1`, the T/C runs as follows: under setting [7], 111 % of control; under setting [8], 102 % of control; under setting [9], 104 % of control.
Turning to `CC(OC(=O)c1ccccc1C(=O)O)c1ccccc1` (configuration not stated), the T/C under setting [10] was 91 % of control; the T/C under setting [11] was 99 % of control and 101 % of control; the T/C under setting [12] was 101 % of control and 108 % of control and 98 % of control; the T/C under setting [13] was 104 % of control; the T/C under setting [14] was 186 % of control.
`Cc1cccc(NC(=O)CCc2ccc(N3C(N)=NC(N)=NC3(C)C)cc2)c1`: the T/C runs as follows: under setting [2], 118 % of control; (dose: 50.0 mg/kg/injection, schedule: Q04DX003 (ip), vehicle: saline sonified) 118 % of control; (dose: 100.0 mg/kg/injection, schedule: Q04DX003 (ip), vehicle: saline sonified) 113 % of control; (dose: 132.0 mg/kg/injection, schedule: Q01DX009 (ip), vehicle: saline with Tween-80) 118 % of control; (dose: 200.0 mg/kg/injection, schedule: Q04DX003 (ip), vehicle: saline sonified) 118 % of control.
